Legend:
[1] = target: T1, PI3-kinase p110-delta/p85-alpha (Homo sapiens, UniProt O00329); test: Inhibition of N-terminal His6-tagged recombinant full length human p110delta/untagged recombinant full length human p85alpha expressed in baculovirus infected Sf21 insect cells using PIP2 as substrate after 60 mins by HTRF assay
JeKo-1 = test: Cytotoxicity against human JeKo1 cells; type: functional, cell-based
[2] = target: T2, Phosphatidylinositol 4,5-bisphosphate 3-kinase catalytic subunit delta isoform (Homo sapiens, UniProt O00329)
T2 sequence (O00329 whole entry): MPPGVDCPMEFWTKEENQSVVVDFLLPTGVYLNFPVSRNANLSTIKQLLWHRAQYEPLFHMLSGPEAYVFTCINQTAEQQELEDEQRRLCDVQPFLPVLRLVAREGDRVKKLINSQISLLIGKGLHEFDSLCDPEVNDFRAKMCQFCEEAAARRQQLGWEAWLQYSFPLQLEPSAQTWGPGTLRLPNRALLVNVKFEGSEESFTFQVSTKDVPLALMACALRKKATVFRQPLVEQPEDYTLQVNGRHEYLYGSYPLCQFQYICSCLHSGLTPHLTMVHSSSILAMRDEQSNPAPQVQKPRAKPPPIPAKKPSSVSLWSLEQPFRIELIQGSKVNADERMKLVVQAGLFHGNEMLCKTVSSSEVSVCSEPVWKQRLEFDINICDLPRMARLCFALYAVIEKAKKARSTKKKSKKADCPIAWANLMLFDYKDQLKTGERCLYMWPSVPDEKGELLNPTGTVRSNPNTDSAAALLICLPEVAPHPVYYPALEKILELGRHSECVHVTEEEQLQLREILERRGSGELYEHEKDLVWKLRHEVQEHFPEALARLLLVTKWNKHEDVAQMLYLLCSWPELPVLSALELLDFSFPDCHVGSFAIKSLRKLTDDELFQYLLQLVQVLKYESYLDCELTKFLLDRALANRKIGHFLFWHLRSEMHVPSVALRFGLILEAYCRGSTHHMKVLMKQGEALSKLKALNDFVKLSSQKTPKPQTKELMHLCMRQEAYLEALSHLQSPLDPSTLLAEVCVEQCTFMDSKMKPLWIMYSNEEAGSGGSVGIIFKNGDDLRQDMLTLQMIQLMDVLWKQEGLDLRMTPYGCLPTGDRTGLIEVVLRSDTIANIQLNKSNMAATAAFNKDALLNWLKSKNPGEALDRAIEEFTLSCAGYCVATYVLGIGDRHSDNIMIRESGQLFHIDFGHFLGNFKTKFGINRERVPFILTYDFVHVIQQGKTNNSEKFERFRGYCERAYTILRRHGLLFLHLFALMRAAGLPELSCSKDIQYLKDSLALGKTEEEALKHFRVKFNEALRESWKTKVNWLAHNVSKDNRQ
Description: Inhibition of PI3Kdelta (unknown origin) preincubated for 30 mins followed by insulin stimulation for 5 mins by Western blot analysis

[3] = target: T2, Phosphatidylinositol 4,5-bisphosphate 3-kinase catalytic subunit delta isoform; test: Inhibition of PI3Kdelta (unknown origin)
[4] = target: T3, Phosphatidylinositol 4,5-bisphosphate 3-kinase catalytic subunit gamma isoform (Homo sapiens, UniProt P48736); test: Inhibition of PI3Kgamma (unknown origin)
T3 sequence (P48736 whole entry, canonical isoform): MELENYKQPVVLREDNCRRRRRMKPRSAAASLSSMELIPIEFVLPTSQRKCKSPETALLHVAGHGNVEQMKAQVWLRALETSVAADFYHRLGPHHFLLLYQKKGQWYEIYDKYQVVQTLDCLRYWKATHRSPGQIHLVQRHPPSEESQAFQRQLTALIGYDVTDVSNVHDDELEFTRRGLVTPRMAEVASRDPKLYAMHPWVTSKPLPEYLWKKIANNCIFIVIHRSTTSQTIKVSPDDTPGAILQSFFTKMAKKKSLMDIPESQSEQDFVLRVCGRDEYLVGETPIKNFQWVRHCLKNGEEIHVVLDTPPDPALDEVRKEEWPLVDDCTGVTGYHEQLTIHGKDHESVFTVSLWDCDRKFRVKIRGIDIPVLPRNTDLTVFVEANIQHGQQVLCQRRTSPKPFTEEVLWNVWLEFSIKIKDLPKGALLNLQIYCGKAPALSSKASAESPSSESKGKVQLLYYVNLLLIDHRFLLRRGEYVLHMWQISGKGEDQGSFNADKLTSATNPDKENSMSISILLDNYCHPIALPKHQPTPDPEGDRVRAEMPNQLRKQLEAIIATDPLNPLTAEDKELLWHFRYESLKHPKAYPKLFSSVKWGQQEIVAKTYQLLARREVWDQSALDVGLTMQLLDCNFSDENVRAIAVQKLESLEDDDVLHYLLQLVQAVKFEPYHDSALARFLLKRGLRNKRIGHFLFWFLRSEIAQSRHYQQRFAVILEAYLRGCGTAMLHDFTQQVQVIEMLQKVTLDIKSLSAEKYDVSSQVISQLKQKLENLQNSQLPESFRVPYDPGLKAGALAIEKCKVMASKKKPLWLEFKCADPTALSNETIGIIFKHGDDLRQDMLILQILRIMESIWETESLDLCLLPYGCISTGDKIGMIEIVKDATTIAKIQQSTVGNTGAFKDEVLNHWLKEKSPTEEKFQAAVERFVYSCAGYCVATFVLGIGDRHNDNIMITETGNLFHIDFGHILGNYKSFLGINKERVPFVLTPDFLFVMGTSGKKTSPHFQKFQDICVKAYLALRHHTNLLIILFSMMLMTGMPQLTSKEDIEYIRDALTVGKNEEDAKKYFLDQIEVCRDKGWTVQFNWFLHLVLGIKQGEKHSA

[5] = target: T1, PI3-kinase p110-delta/p85-alpha; test: Inhibition of N-terminal His6-tagged recombinant full length human p110delta/untagged recombinant full length human p85alpha expressed in baculovirus infected Sf21 insect cells after 60 mins by ADP-Glo assay
[6] = Cytotoxicity against human SUDHL cells; type: functional, cell-based
[7] = target: T1, PI3-kinase p110-delta/p85-alpha; test: Inhibition of N-terminal His6-tagged recombinant full length human p110delta/untagged recombinant full length human p85alpha expressed in baculovirus infected Sf21 insect cells after 20 mins by alphascreen assay
[8] = target: Casein kinase I isoform epsilon (Homo sapiens) (UniProt P49674); test: Inhibition of casein kinase 1 epsilon (unknown origin) at 1 uM relative to control
Casein kinase I isoform epsilon (Homo sapiens), sequence (P49674 whole entry, looked up, canonical isoform): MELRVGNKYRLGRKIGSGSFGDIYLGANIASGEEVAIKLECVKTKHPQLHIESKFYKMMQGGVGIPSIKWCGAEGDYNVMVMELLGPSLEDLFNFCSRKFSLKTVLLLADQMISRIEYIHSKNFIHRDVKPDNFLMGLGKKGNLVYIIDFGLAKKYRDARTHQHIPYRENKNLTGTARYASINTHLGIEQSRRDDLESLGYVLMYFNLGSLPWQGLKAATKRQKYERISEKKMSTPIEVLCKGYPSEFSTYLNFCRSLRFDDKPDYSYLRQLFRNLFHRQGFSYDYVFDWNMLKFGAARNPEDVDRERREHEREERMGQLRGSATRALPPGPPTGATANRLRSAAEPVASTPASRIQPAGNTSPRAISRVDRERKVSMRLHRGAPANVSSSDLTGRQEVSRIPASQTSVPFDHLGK

[9] = target: T3, Phosphatidylinositol 4,5-bisphosphate 3-kinase catalytic subunit gamma isoform; test: Inhibition of PI3Kgamma (unknown origin) using PIP2 as substrate preincubated for 10 mins followed by ATP addition measured after 30 mins by HTRF assay
B cell = test: Cytotoxicity against human B cells; type: functional, cell-based
Homo sapiens [10] = species on record: Homo sapiens; test: Selectivity ratio of IC50 for PI3Kalpha in human Neutrophil cells to IC50 for PI3Kdelta in human Neutrophil cells; type: cell-based
Homo sapiens [11] = species on record: Homo sapiens; test: Selectivity ratio of IC50 for PI3Kbeta in human Neutrophil cells to IC50 for PI3Kdelta in human Neutrophil cells; type: cell-based
[12] = target: T3, Phosphatidylinositol 4,5-bisphosphate 3-kinase catalytic subunit gamma isoform; test: Inhibition of PI3Kgamma in human Neutrophil cells; type: cell-based
Neutrophil = test: Cytotoxicity against in human Neutrophil cells; type: cell-based
[13] = target: T2, Phosphatidylinositol 4,5-bisphosphate 3-kinase catalytic subunit delta isoform; test: Inhibition of PI3Kdelta in human Neutrophil cells; type: cell-based
Homo sapiens [14] = species on record: Homo sapiens; test: Selectivity ratio of IC50 for N-terminal His6-tagged recombiant human full length p120gamma IC50 for N-terminal His6-tagged recombinant full length human p110delta/untagged recombinant full length human p85alpha
Jurkat = test: Cytotoxicity against human Jurkat cells; type: functional, cell-based
SU-DHL-6 [15] = test: Cytotoxicity against human SU-DHL6 cells; type: functional, cell-based
Raji = test: Cytotoxicity against in human Raji cells; type: functional, cell-based
Pfeiffer = test: Cytotoxicity against human Pfeiffer cells; type: functional, cell-based
[16] = target: T2, Phosphatidylinositol 4,5-bisphosphate 3-kinase catalytic subunit delta isoform; test: Inhibition of PI3Kdelta in human Pfeiffer cells; type: cell-based
[17] = Cytotoxicity against basophil derived from B-cell malignant patient by cell-titer aqueous one solution cell proliferation assay; type: functional; details: Homo sapiens
Homo sapiens [18] = species on record: Homo sapiens; test: Selectivity ratio of IC50 for His-tagged recombiant human full length p110 alpha/p85 alpha IC50 for N-terminal His6-tagged recombinant full length human p110delta/untagged recombinant full length human p85alpha
Homo sapiens [19] = species on record: Homo sapiens; test: Selectivity ratio of IC50 for N-terminal His-tagged recombinant human full length p110 beta/untagged recombinant full length human p85alpha IC50 forN-terminal His6-tagged recombinant full length human p110delta/untagged recombinant full length human p85alpha
[20] = target: T3, Phosphatidylinositol 4,5-bisphosphate 3-kinase catalytic subunit gamma isoform; test: Inhibition of recombinant N-terminal His-tagged full length human PI3Kgamma expressed in baculovirus expression system after 80 mins by fluorescence polarization assay
[21] = target: T1, PI3-kinase p110-delta/p85-alpha; test: Inhibition of N-terminal His6-tagged recombinant full length human p110delta/untagged recombinant full length human p85alpha expressed in baculovirus infected Sf21 insect cells after 80 mins by fluorescence polarization assay
[22] = target: T3, Phosphatidylinositol 4,5-bisphosphate 3-kinase catalytic subunit gamma isoform; test: Inhibition of GST-tagged PI3Kgamma (unknown origin) using PIP2 as substrate preincubated for 2 hrs followed by ATP addition measured after 30 mins by TR-FRET assay
[23] = Cytotoxicity against human basophil cells after 24 hrs by MTT assay; type: cell-based
SU-DHL-6 [24] = test: Cytotoxicity against in human SUDHL6 cells; type: functional, cell-based
[25] = target: T3, Phosphatidylinositol 4,5-bisphosphate 3-kinase catalytic subunit gamma isoform; test: Inhibition of PI3Kgamma in human SUDHL6 cells; type: cell-based
Homo sapiens [26] = species on record: Homo sapiens; test: Selectivity ratio of IC50 for PI3Kbeta in human SUDHL6 cells to IC50 for PI3Kdelta in human SUDHL6 cells; type: cell-based
Homo sapiens [27] = species on record: Homo sapiens; test: Selectivity ratio of IC50 for PI3Kalpha in human SUDHL6 cells to IC50 for PI3Kdelta in human SUDHL6 cells; type: cell-based
[28] = target: T2, Phosphatidylinositol 4,5-bisphosphate 3-kinase catalytic subunit delta isoform; test: Inhibition of PI3Kdelta in human SU-DHL6 cells; type: cell-based
[29] = target: Phosphatidylinositol 3-kinase catalytic subunit type 3 (Homo sapiens, UniProt Q8NEB9); test: Inhibition of Vps34 (unknown origin)
Phosphatidylinositol 3-kinase catalytic subunit type 3, sequence (Q8NEB9 whole entry): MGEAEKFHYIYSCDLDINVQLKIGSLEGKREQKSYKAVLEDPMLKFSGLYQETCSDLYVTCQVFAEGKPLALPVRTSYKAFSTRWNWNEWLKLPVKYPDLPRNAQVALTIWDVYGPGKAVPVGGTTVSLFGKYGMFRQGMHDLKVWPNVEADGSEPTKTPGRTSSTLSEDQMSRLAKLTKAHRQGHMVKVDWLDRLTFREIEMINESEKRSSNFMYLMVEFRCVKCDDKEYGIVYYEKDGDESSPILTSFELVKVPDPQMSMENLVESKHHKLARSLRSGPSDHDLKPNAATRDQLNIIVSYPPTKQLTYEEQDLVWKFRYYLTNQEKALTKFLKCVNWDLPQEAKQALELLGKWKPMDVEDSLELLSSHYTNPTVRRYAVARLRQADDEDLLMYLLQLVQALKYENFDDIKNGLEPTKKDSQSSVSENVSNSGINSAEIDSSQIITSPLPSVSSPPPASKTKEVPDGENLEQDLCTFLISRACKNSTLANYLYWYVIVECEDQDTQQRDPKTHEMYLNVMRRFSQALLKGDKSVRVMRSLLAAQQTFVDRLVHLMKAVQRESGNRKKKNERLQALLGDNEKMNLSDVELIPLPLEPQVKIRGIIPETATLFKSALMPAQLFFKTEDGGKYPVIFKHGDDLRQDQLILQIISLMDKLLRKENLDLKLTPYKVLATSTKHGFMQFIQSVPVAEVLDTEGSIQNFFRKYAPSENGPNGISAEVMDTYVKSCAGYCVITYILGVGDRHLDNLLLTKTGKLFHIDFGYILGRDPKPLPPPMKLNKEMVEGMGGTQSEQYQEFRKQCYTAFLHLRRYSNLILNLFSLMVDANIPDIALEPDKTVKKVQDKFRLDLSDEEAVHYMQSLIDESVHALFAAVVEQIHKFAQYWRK

[30] = target: Serine/threonine-protein kinase SIK1 (Homo sapiens) (UniProt P57059); test: Inhibition of SIK (unknown origin) at 1 uM relative to control
Serine/threonine-protein kinase SIK1 (Homo sapiens), sequence (P57059 whole entry): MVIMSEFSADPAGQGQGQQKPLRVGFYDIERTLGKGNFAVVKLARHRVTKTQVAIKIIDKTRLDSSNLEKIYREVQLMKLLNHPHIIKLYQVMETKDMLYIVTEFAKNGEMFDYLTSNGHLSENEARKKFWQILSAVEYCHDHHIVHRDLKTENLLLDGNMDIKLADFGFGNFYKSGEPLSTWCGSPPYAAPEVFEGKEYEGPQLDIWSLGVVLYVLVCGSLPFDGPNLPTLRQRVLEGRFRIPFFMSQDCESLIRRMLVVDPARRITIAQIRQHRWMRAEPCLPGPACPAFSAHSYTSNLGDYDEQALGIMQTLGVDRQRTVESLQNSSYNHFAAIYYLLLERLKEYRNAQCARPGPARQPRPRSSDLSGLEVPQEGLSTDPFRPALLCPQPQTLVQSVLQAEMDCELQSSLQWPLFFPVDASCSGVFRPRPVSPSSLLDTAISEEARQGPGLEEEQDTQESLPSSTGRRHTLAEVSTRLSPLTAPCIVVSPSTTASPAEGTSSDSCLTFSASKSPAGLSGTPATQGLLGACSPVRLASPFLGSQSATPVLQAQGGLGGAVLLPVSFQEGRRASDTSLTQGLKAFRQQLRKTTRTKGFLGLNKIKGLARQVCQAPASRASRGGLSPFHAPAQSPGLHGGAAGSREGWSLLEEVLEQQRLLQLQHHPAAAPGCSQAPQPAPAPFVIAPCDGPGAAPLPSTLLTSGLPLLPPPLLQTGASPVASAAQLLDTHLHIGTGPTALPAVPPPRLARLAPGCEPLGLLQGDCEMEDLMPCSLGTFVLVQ

[31] = target: DNA-dependent protein kinase catalytic subunit (Homo sapiens, UniProt P78527); test: Inhibition of DNAPK (unknown origin)

T1 sequence (P27986 whole entry, one chain of several): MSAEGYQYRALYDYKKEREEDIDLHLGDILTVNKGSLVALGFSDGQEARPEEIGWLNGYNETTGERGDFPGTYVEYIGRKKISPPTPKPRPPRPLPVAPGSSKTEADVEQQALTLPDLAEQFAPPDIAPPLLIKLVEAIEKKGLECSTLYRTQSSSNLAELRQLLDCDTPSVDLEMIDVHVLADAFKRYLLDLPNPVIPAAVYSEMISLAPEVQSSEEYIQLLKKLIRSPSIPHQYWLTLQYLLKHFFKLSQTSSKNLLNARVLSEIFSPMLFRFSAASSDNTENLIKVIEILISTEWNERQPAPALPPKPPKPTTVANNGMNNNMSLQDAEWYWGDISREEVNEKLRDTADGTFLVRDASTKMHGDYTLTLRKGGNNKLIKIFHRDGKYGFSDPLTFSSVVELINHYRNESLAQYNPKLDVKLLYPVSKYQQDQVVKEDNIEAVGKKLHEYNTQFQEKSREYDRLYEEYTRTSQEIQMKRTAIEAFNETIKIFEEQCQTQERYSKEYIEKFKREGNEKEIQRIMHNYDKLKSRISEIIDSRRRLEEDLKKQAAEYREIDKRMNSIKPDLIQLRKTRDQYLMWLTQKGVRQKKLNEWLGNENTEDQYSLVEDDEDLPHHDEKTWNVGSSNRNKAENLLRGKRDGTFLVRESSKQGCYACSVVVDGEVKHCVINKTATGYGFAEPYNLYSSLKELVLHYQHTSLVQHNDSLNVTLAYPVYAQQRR

CCn1c(-c2cnc(C)nc2)nc2c(NC3CCc4nc(Cl)n(C5CC5)c4C3)ncnc21 (stereo not given)
IC50 [1]: < 1 nM

Cn1nc(-c2cnc(N)c(-c3ccc(C(N)=O)c(F)c3)n2)nc1C1(c2ccccc2)CC1
IC50 (JeKo-1): 120 nM

C[C@H](Nc1ncnc(N)c1-c1nnn[nH]1)c1nn2cccc2c(=O)n1-c1ccccc1
IC50 [2]: 0.2 nM

C[C@H](Nc1ncnc(N)c1C#N)c1cc2ncc(Cl)n2cc1-c1ccccc1
IC50 [3]: 0.2 nM
IC50 [4]: 87 nM

Cc1nn(C)c(-c2ccccc2)c1Cn1nc(-c2cc(O)cc(F)c2)c2c(N)ncnc21
IC50 [5]: < 1000 nM

CC(=O)N1CC(N2CCOc3c(C(C)n4nc(C)c5c(N)ncnc54)cc(Cl)c(C)c3C2)C1 (stereo not given)
IC50 [6]: < 500 nM
IC50 [7]: < 100 nM

Cc1ccn2nc([C@H](C)Nc3ncnc4[nH]cc(-c5ccc(O)c(CN6CCC(N(C)C)CC6)c5)c34)n(-c3ccccc3)c(=O)c12
IC50 [2]: 0.43 nM

CCn1c(-c2ccc(C(F)(F)F)nc2)nc2c(NC3CCc4nnc(C(C)C)n4C3)ncnc21 (stereo not given)
IC50 [1]: < 1 nM

CC(C)Oc1ccc(-c2nn([C@@H](C)c3oc4ccc(F)cc4c(=O)c3-c3cccc(F)c3)c3ncnc(N)c23)cc1F [UMBRALISIB]
inhibition [8]: > 60%
IC50 [9]: > 120 nM

CC[C@H](Nc1ncnc(N)c1-c1nnc(C)o1)c1nc2cccc(Cl)c2c(=O)n1-c1ccccc1
IC50 [2]: 2 nM

CCOc1c([C@H](C)n2nc(C)c3c(N)ncnc32)cc(Cl)c(F)c1[C@@H]1CNC(=O)C1 [PARSACLISIB]
IC50 (B cell): 0.15 nM

[O-][n+]1cccc(-c2nc3c(Cl)cccc3cc2[C@@H](Nc2ncnc3cccnc23)C(F)(F)F)c1 [SELETALISIB]
Ratio IC50 (Homo sapiens [10]): 300
Ratio IC50 (Homo sapiens [11]): 180
IC50 [12]: 280 nM
IC50 (Neutrophil): 16 nM
IC50 [13]: 12 nM

Cc1ccc2c(c1)C(=O)N(C)c1cnc(Nc3cccc(S(=O)(=O)N4CCC(O)CC4)c3)nc1N2C
Ratio IC50 (Homo sapiens [14]): 3.5
IC50 [3]: 2 nM
IC50 (Jurkat): 1400 nM

Cc1csc2cc(C(C)Nc3ncnc4[nH]cnc34)c(-c3ccccc3)c(=O)n12 (stereo not given)
IC50 (SU-DHL-6 [15]): 36 nM

C[C@H](Nc1ncnc2nc[nH]c12)c1cc2cccc(Cl)c2c(=O)n1-c1ccccc1 [DUVELISIB]
IC50 (Raji): 0.36 nM

Cc1c(Cl)cc(C(C)Nc2ncnc3nc[nH]c23)c(-c2cccc(F)c2)c1C(N)=O (stereo not given)
IC50 (Pfeiffer): < 50 nM
IC50 [16]: < 50 nM

CC[C@H](Nc1ncnc2[nH]cnc12)c1nc2cccc(F)c2c(=O)n1-c1ccccc1 [IDELALISIB]
IC50 [17]: 846 nM

C[C@H]1CN(c2nc(N)nc3c2S(=O)(=O)CC3)[C@@H]1c1nn2ccc(Cl)c2c(=O)n1-c1ccccc1
Ratio IC50 (Homo sapiens [18]): 250
Ratio IC50 (Homo sapiens [19]): 250
IC50 [20]: 3 nM
IC50 [21]: 4 nM

C[C@H](Nc1ncnc2[nH]cnc12)c1nc2ccc(F)cc2c(=O)n1-c1ccccc1 [ACALISIB]
IC50 [22]: 3000 nM
IC50 [23]: 19 nM

COc1c(C(C)Nc2ncnc(N)c2C#N)cc(Cl)c(C)c1-c1cccnc1 (stereo not given)
IC50 [7]: < 20 nM
IC50 (Pfeiffer): < 20 nM

Cn1c(C(=O)NCC2CC2)nc2c(N3CCC(n4c(=O)[nH]c5ccccc54)CC3)ncnc21
IC50 [1]: 7.5 nM
Ratio IC50 (Homo sapiens [14]): > 13

C[C@H](Nc1ncnc2[nH]cnc12)C1=Nc2cccc(Cl)c2S(=O)(=O)N1c1ccccc1
IC50 (SU-DHL-6 [24]): 6 nM
IC50 [25]: 34 nM
Ratio IC50 (Homo sapiens [26]): 170
Ratio IC50 (Homo sapiens [27]): 790

CC[C@H](Nc1ncnc2c1nc(-c1cnn(CC)c1C)n2C)C(=O)N1CCC(F)(F)CC1
IC50 [1]: 2.8 nM

Cc1csc2nc([C@H](C)Nc3ncnc4[nH]cnc34)c(-c3cccc(F)c3)c(=O)n12 [DEZAPELISIB]
IC50 [17]: 35 nM

CC(c1oc(=O)c2ccccc2c1C1=CCN(C)CC1)n1nc(-c2cc(O)cc(F)c2)c2c(N)ncnc21 (stereo not given)
IC50 [4]: > 1000 nM

CC(Nc1ncnc2[nH]cnc12)c1cc2ccccn2c(=O)c1-c1ccccc1 (stereo not given)
IC50 [3]: 0.1 to 10 nM

Cc1ncc(-c2nc3c(-c4ccc5c(c4)C4(CCCN4S(C)(=O)=O)C(=O)N5)ncnc3n2C)cn1 (stereo not given)
IC50 [1]: 0.7 nM

CC(c1cc2ccccn2c1-c1ccc(=O)n(CCN2CCOCC2)n1)n1nc(-c2cc(O)cc(F)c2)c2c(N)ncnc21 (stereo not given)
IC50 [3]: 10 to 1000 nM
IC50 [4]: < 10 nM

Cc1cccc2nc([C@H](C)Nc3ncnc4[nH]cc(-c5cccc(NS(C)(=O)=O)c5)c34)n(-c3ccccc3)c(=O)c12
IC50 [2]: 0.04 nM

Cc1nc(NC(=O)CNC(=O)c2ccccc2)sc1-c1cnc(Cl)c(NS(=O)(=O)c2ccccc2)c1
Ratio IC50 (Homo sapiens [14]): 71
IC50 [3]: 0.6 nM

C[C@H](Nc1ncnc(N)c1C#Cc1ccc(F)cn1)c1nc2c(F)ccc(F)c2c(=O)n1-c1cc(F)cc(F)c1
IC50 [2]: < 100 nM

COc1ccc(-c2nc3c(O[C@H]4CCN(C(=O)C5CCOCC5)C4)ncnc3n2C)cn1
IC50 [1]: < 1 nM

CCC(=O)N1CC[C@H](Oc2ncnc3c2nc(-c2cnn(CC)c2C)n3C)C1
IC50 [1]: < 1 nM

C[C@H](Nc1nc(N)nc(N)c1C#N)c1cn2ncc(Cl)c2nc1-c1cccc(F)c1
IC50 (SU-DHL-6 [15]): < 20 nM
IC50 [28]: < 20 nM

Cc1nc(N)nc(N[C@@H](C)c2nc3ccn(C)c3cc2N2CCNCC2)c1C#N
IC50 [3]: 0.7 nM

C[C@H](NC(=O)c1c(N)nn2cccnc12)c1cc2cccc(C#Cc3cnn(C)c3)c2c(=O)n1-c1ccccc1 [EGANELISIB]
IC50 [29]: 40000 nM
inhibition [30]: 88%
IC50 [31]: 4800 nM

Source: ChEMBL document CHEMBL4350952, “Evolution of PI3Kγ and δ Inhibitors for Inflammatory and Autoimmune Diseases” (J Med Chem, 2019)
